Assay results taken from patent US9253983B2, “Triazole compound and use thereof” (KUREHA CORPORATION, priority 2011, dated 2016).

What was measured:
Glomerella cingurata = assay: Test 1 for antifungal effect, plate medium: G.c; format: cell-based; conditions: PDA plate medium
Description: (§1) Compound (1-1a) or Compound (1-2a) was dissolved in dimethyl sulfoxide, and the resulting solution was added to a PDA medium (potato dextrose-agar medium) at about 60° C. The medium and the solution were mixed thoroughly in a conical flask, poured into a petri dish, and allowed to solidify. In this way, a plate medium containing Compound (1-1a) or Compound (1-2a) at a certain concentration was prepared.
(§2) Meanwhile, test microorganisms cultured on a plate medium in advance were cut out with the use of a cork borer 4 mm in diameter, and were inoculated onto the compound-containing plate medium. After the inoculation, the microorganisms were cultured at their optimum growth temperatures (for example, refer to LIST OF CULTURES 1996 microorganisms 10th edition, Institute for Fermentation (foundation)) for 1 day to 7 days, and their growth was determined by measuring the diameter of their flora. The extent of growth of the microorganisms on the compound-containing plate medium was compared with that of microorganisms on a plate medium where no compound was added, and mycelial growth inhibition rate was calculated by the following equation: R=100(dc−dt)/dc where R is mycelial growth inhibition rate (%), dc is the flora diameter in untreated plate, and dt is the flora diameter in plate treated with the compound.
(§3) A larger antifungal index indicates a better antifungal effect.

Botrytis cinerea = assay: Test 1 for antifungal effect, plate medium: B.c; format: cell-based; conditions: PDA plate medium
Description: as §1, §2, §3

wheat = assay: Growth inhibition (adverse effects) of seed treatment on wheat seeds; format: in vivo; conditions: wheat, 20 days after sowing
Description: A pot experiment was performed to evaluate the growth inhibition (adverse effects) caused by the seed treatment. Compound (1-1a) and Compound (1-2a), each of which was dissolved in DMSO to make up such a concentration that the seeds would be treated in treatment amount of 2 g to 200 g ai/100 kg seeds, were each applied to wheat seeds in a vial, and thereafter 8 wheat seeds were sowed in an 80-cm^2 pot. The pot was kept in a greenhouse with water supplied to its bottom. 20 days after the sowing, a growth measure of wheat was evaluated. A growth inhibition index was calculated based on the criteria shown by Table 10. In Table 10, a smaller growth inhibition index indicates a lesser adverse effect of growth inhibition caused by the treatment with the use of a plant disease controlling agent.

Septoria tritici = assay: Test 2 for antifungal effect, plate medium: S.t; format: cell-based; conditions: PDA plate medium
Description: (§4) Compound (1-1b) or Compound (1-2b) was dissolved in dimethyl sulfoxide, and the resulting solution was added to a PDA medium (potato dextrose-agar medium) at about 60° C. The medium and the solution were mixed thoroughly in a conical flask, poured into a petri dish, and allowed to solidify. In this way, a plate medium containing Compound (1-1b) or Compound (1-2b) at a certain concentration was prepared.
(§5) Meanwhile, test microorganisms cultured on a plate medium in advance were cut out with the use of a cork borer 4 mm in diameter, and were inoculated onto the compound-containing plate medium. After the inoculation, the pathogens were cultured at their optimum growth temperatures (for example, refer to LIST OF CULTURES 1996 microorganisms 10th edition, Institute for Fermentation (foundation)) for 1 day to 7 days, and their growth was determined by measuring the diameter of their flora. The extent of growth of the pathogens on the compound-containing plate medium was compared with that of pathogens on a plate medium where no compound was added, and mycelial growth inhibition rate was calculated as in Experiment Example 10. Note that, in Experiment Example 11, controls used in the antifungal effect tests are Compound (1-1a) and Compound (1-2a) instead of Compound (1-1b) and Compound (1-2b), respectively.
(§6) The results were rated on a 1-to-5 scale as in Experiment Example 10.

Phaeosphaeria nodorum = assay: Test 1 for antifungal effect, plate medium: P.n; format: cell-based; conditions: PDA plate medium
Description: as §1, §2, §3

Gibberella fujikuroi = assay: Test 1 for antifungal effect, plate medium: G.f; format: cell-based; conditions: PDA plate medium
Description: as §1, §2, §3

Puccinia recondita = assay: Efficacy of seed treatment on wheat brown rust; format: in vivo; conditions: wheat seed treatment 20 g ai/100 kg seeds, 12 days after inoculation
Description: A pot experiment was performed to evaluate the efficacy of seed treatment in controlling wheat leaf rust. Compound (1-1a) and Compound (1-2a), each of which was dissolved in DMSO to make up such a concentration that the seeds would be treated in treatment amount of 20 g ai/100 kg seeds, were each applied to wheat seeds in a vial, and thereafter 8 wheat seeds were sowed on an 80-cm^2 pot. The pot was kept in a greenhouse with water supplied to its bottom. 21 days after the sowing, the wheat seeds were inoculated with Puccinia recondita, and kept in a wet box for 2 days. After that, the pot was again kept in the greenhouse with water supplied to its bottom. 12 days after the inoculation, the percentage of affected area was found, and the protective value was calculated by the following equation. Protective value (%)=(1−(Percentage of affected area in treated region/Percentage of affected area in untreated region))×100

Pyrenophora graminea = assay: Test 2 for antifungal effect, plate medium: P.g; format: cell-based; conditions: PDA plate medium
Description: as §4, §5, §6

Ustilago nuda = assay: Test 2 for antifungal effect, plate medium: U.n; format: cell-based; conditions: PDA plate medium
Description: as §4, §5, §6

CC1(CCl)CCC(Cc2ccc(Cl)cc2)C1(O)Cn1cncn1 (single isomer, unassigned) [Compound (1-1a), (1,2-cis, 1,5-cis)-5-(4-chlorobenzyl)-2-chloromethyl-2-methyl-1-(1H-1,2,4-triazole-1-ylmethyl)cyclopentanol]
2 (Less than 70% but not less than 60%): Antifungal index (mycelial growth inhibition rate) (Phaeosphaeria nodorum; 0.16 mg/L) | Antifungal index (mycelial growth inhibition rate) (Pyrenophora graminea; 0.04 mg/L) | Antifungal index (mycelial growth inhibition rate) (Ustilago nuda; 0.31 mg/L)
5 (90% or greater): Antifungal index (mycelial growth inhibition rate) (Glomerella cingurata; 0.16 mg/L) | Antifungal index (mycelial growth inhibition rate) (Glomerella cingurata; 0.31 mg/L) | Antifungal index (mycelial growth inhibition rate) (Glomerella cingurata; 0.63 mg/L) | Antifungal index (mycelial growth inhibition rate) (Glomerella cingurata; 1.25 mg/L) | Antifungal index (mycelial growth inhibition rate) (Glomerella cingurata; 2.50 mg/L) | Antifungal index (mycelial growth inhibition rate) (Botrytis cinerea; 0.31 mg/L) | Antifungal index (mycelial growth inhibition rate) (Botrytis cinerea; 0.63 mg/L) | Antifungal index (mycelial growth inhibition rate) (Botrytis cinerea; 1.25 mg/L) | Antifungal index (mycelial growth inhibition rate) (Botrytis cinerea; 2.50 mg/L) | Antifungal index (mycelial growth inhibition rate) (Phaeosphaeria nodorum; 0.63 mg/L) | Antifungal index (mycelial growth inhibition rate) (Phaeosphaeria nodorum; 1.25 mg/L) | Antifungal index (mycelial growth inhibition rate) (Phaeosphaeria nodorum; 2.50 mg/L) | Antifungal index (mycelial growth inhibition rate) (Gibberella fujikuroi; 0.16 mg/L) | Antifungal index (mycelial growth inhibition rate) (Gibberella fujikuroi; 0.31 mg/L) | Antifungal index (mycelial growth inhibition rate) (Gibberella fujikuroi; 0.63 mg/L) | Antifungal index (mycelial growth inhibition rate) (Gibberella fujikuroi; 1.25 mg/L) | Antifungal index (mycelial growth inhibition rate) (Gibberella fujikuroi; 2.50 mg/L) | Antifungal index (mycelial growth inhibition rate) (Pyrenophora graminea; 0.31 mg/L) | Antifungal index (mycelial growth inhibition rate) (Pyrenophora graminea; 0.63 mg/L) | Antifungal index (mycelial growth inhibition rate) (Pyrenophora graminea; 1.25 mg/L)
1 (Less than 60%): Antifungal index (mycelial growth inhibition rate) (Septoria tritici; 0.04 mg/L) | Antifungal index (mycelial growth inhibition rate) (Septoria tritici; 0.08 mg/L) | Antifungal index (mycelial growth inhibition rate) (Septoria tritici; 0.16 mg/L) | Antifungal index (mycelial growth inhibition rate) (Septoria tritici; 0.31 mg/L) | Antifungal index (mycelial growth inhibition rate) (Septoria tritici; 0.63 mg/L) | Antifungal index (mycelial growth inhibition rate) (Septoria tritici; 1.25 mg/L) | Antifungal index (mycelial growth inhibition rate) (Ustilago nuda; 0.04 mg/L) | Antifungal index (mycelial growth inhibition rate) (Ustilago nuda; 0.08 mg/L) | Antifungal index (mycelial growth inhibition rate) (Ustilago nuda; 0.16 mg/L)
0 (50% or more): Growth inhibition index (wheat; treatment amount 2 g ai/100 kg seeds) | Growth inhibition index (wheat; treatment amount 20 g ai/100 kg seeds) | Growth inhibition index (wheat; treatment amount 200 g ai/100 kg seeds)
90%: Protective value (%) (Puccinia recondita)
4 (Less than 90% but not less than 80%): Antifungal index (mycelial growth inhibition rate) (Pyrenophora graminea; 0.16 mg/L) | Antifungal index (mycelial growth inhibition rate) (Ustilago nuda; 1.25 mg/L)
3 (Less than 80% but not less than 70%): Antifungal index (mycelial growth inhibition rate) (Botrytis cinerea; 0.16 mg/L) | Antifungal index (mycelial growth inhibition rate) (Phaeosphaeria nodorum; 0.31 mg/L) | Antifungal index (mycelial growth inhibition rate) (Pyrenophora graminea; 0.08 mg/L) | Antifungal index (mycelial growth inhibition rate) (Ustilago nuda; 0.63 mg/L)
